What is called melting point is the temperature, or range, at which the solid turns liquid.

This is an account of results in US8114886B2, “Pyridylmethylsulfone derivative” (Daiichi Sankyo Company, Limited, priority 2005, dated 2012).

The structures appear in SMILES notation.

In the case of `Cc1cc(C(=O)NCOC(=O)CO)ncc1C(c1cc(F)ccc1F)S(=O)(=O)c1ccc(F)cc1` (centres unmarked) [Example 109, [[[5-[(2,5-Difluorophenyl)[(4-fluorophenyl)sulfonyl]methyl]-4-methylpyridin-2-yl]carbonyl]amino]methyl hydroxyacetate], the melting point worked out at 84 °C.

For the molecule `Cc1cc(C(=O)NCOCCO)ncc1C(c1cc(F)ccc1F)S(=O)(=O)c1ccc(F)cc1` (centres unmarked) [Example 112, 5-[(2,5-Difluorophenyl)[(4-fluorophenyl)sulfonyl]methyl]-N-[(2-hydroxyethoxy)methyl]-4-methylpyridine-2-carboxamide], the melting point lay within 175 to 177 °C.

`Cc1cc(C(=O)NCOCc2cccnc2)ncc1C(c1cc(F)ccc1F)S(=O)(=O)c1ccc(F)cc1` (centres unmarked) [Example 113, 5-[(2,5-Difluorophenyl) [(4-fluorophenyl)sulfonyl]methyl]-4-methyl-N-[(pyridin-3-ylmethoxy)methyl]pyridine-2-carboxamide] came in with a melting point of 121 to 123 °C.

For the molecule `Cc1cc(C(N)=O)ncc1C(c1c(F)ccc(F)c1F)S(=O)(=O)c1ccc(F)c(F)c1` (centres unmarked) [Example 121, 5-[[(3,4-Difluorophenyl)sulfonyl](2,3,6-trifluorophenyl)methyl]-4-methylpyridine-2-carboxamide], the melting point was in the range of 200 to 201 °C.

`Cc1cc(C(=O)NCO)ncc1C(c1c(F)ccc(F)c1F)S(=O)(=O)c1ccc(F)c(F)c1` (centres unmarked) [Example 122, 5-[[(3,4-Difluorophenyl)sulfonyl](2,3,6-trifluorophenyl)methyl]-N-(hydroxymethyl)-4-methylpyridine-2-carboxamide] yielded a melting point of 119 to 120 °C.

For the molecule `Cc1cc(C(N)=O)ncc1C(c1c(F)ccc(F)c1F)S(=O)(=O)c1ccc2ccoc2c1` (centres unmarked) [Example 126, 5-[(1-Benzofuran-6-ylsulfonyl)(2,3,6-trifluorophenyl)methyl]-4-methylpyridine-2-carboxamide], the melting point is 237 to 240 °C.

As to `Cc1cc(C(=O)NCO)ncc1C(c1c(F)ccc(F)c1F)S(=O)(=O)c1ccc2ccoc2c1` (centres unmarked) [Example 127, 5-[(1-Benzofuran-6-ylsulfonyl)(2,3,6-trifluorophenyl)methyl]-N-(hydroxymethyl)-4-methylpyridine-2-carboxamide], the melting point was 185 to 186 °C (dec.).

For `Cc1cc(C(=O)NCO)ncc1C(c1c(F)ccc(F)c1F)S(=O)(=O)c1ccc(C(F)(F)F)cc1` (centres unmarked) [Example 129, N-(hydroxymethyl)-4-methyl-5-[[[4-(trifluoromethyl)phenyl]sulfonyl](2,3,6-trifluorophenyl)methyl]pyridine-2-carboxamide], the melting point was in the range of 190 to 192 °C.

With `Cc1cc(C(=O)NCS)ncc1C(c1cc(F)ccc1F)S(=O)(=O)c1ccc(F)cc1` (centres unmarked) [Example 132, 5-[(2,5-Difluorophenyl)[(4-fluorophenyl)sulfonyl]methyl]-N-(mercaptomethyl)-4-methylpyridine-2-carboxamide], the melting point was 190 to 193 °C.

As for `Cc1cc(C(=O)N(C)CO)ncc1C(c1cc(F)ccc1F)S(=O)(=O)c1ccc(F)cc1` (centres unmarked) [Example 133, 5-[(2,5-Difluorophenyl)((4-fluorophenyl)sulfonyl)methyl]-N-(hydroxymethyl)-N,4-dimethylpyridine-2-carboxamide], the melting point was 184 to 186 °C.

For `Cc1cc(C(=O)NCO)ncc1C(c1c(F)ccc(F)c1F)S(=O)(=O)c1ccc(C(F)F)nc1` (centres unmarked) [Example 136, 5-[[[6-(Difluoromethyl)pyridin-3-yl]sulfonyl](2,3,6-trifluorophenyl)methyl]-N-(1-hydroxymethyl)-4-methylpyridine-2-carboxamide], the melting point fell in the range of 181 to 183 °C.
